One may read the solubility as the concentration that dissolves in the medium under given conditions.

Several values for one entry are separate records, joined by “and”; a condition that tells them apart may be missing. Equal values may be shown once. Read-outs that look alike come from different tables or passages of the source. Square brackets hold non-standard residues; d marks the D form. Ends that are not written are not given here. PEG24 = NCCOCCOCCOCCOCCOCCOCCOCCOCCOCCOCCOCCOCCOCCOCCOCCOCCOCCOCCOCCOCCOCCOCCOCCOCCC(=O)O; Cha = N[C@@H](CC1CCCCC1)C(=O)O

These results are taken from patent US20170326232A1, “INTRATUMORAL ADMINISTRATION OF PARTICLES CONTAINING A TOLL-LIKE RECEPTOR 9 AGONIST AND A TUMOR ANTIGEN FOR TREATING CANCER” (Dynavax Technologies Corporation, priority 2016, published 2017).

Holding throughout (format): physicochemical
A short description of data set [1]: Adsorption of CpG-ODN to aluminum hydroxide, quantified by UV absorbance at 260 nm. Particulars: for % D61-04 Bound: Al(OH)3 1.0 mg; for D61-01 binding: co-adsorption with AH1 CII peptide.
Data set [2] can be described thus: Solubilization of peptide antigens in buffers and organic solvents (visual assessment). Also on record: key to Qualitative Solubility score: 1 = fully soluble/clarity similar to water; 2 = partially soluble; 3 = insoluble.
Data set [3] in a line: Adsorption of peptide antigens to aluminum hydroxide, quantified by UV, amino acid analysis or RP-HPLC. Particulars: RP-HPLC at 215 nm.
Where [4] appears, read: 10 mM NaOAc, 150 mM NaCl, pH 7.0.
[5] abbreviates: input 0.25 mg to 1 mg aluminum hydroxide, pH 7.0.
Setting [6] is: input 0.50 mg to 1 mg aluminum hydroxide, pH 7.0.
[7] abbreviates: input 1.0 mg to 1 mg aluminum hydroxide, pH 7.0.
Setting [8] is: input 1.5 mg to 1 mg aluminum hydroxide, pH 7.0.

Regarding “5′-TCGAACGTTCGAACGTTCGAACGTTCGAAT-3′ (DNA TCGAACGTTCGAACGTTCGAACGTTCGAAT; DNA, all phosphorothioate, methylation of C not given here) [D61-04]”, the “maximum bound by 1 mg of aluminum hydroxide” value in data set [1] (setting [4]) was determined as 1.1 mg. Further, the Binding efficiency was 100% in data set [1] (setting [5]), 100% in data set [1] (setting [6]), 89% in data set [1] (setting [7]) and 73% in data set [1] (setting [8]). Also, the Bound stood at 0.25 mg in data set [1] (setting [5]), 0.50 mg in data set [1] (setting [6]), 0.89 mg in data set [1] (setting [7]) and 1.1 mg in data set [1] (setting [8]). Besides, the “% D61-04 Bound” value in data set [1] (pH 6.5, D61-04 input 1.0 mg) was 92%; in data set [1] (pH 6.5, D61-04 input 1.5 mg), 78%; in data set [1] (pH 6.5, D61-04 input 2.0 mg) it was 63%; in data set [1] (pH 7.0, D61-04 input 1.0 mg) it was 91%; in data set [1] (pH 7.0, D61-04 input 1.5 mg) it was 73%; in data set [1] (pH 7.0, D61-04 input 2.0 mg), 61%. Besides, the “% D61-04 Bound” value in data set [1] (pH 7.5, D61-04 input 1.0 mg) was 92%; in data set [1] (pH 7.5, D61-04 input 1.5 mg) it was 74%; in data set [1] (pH 7.5, D61-04 input 2.0 mg) it was 60%.
In the case of “5′-TCGGCGC-3′-HEG-5′-AACGTTC-3′-HEG-5′-TCGGCGC-3′ (DNA TCGGCGCAACGTTCTCGGCGC; HEG spacers, phosphorothioate linkages, chemistry not fully specified) [D61-01]”, the “maximum bound by 1 mg of aluminum hydroxide” value in data set [1] (setting [4]) was determined as 1.0 mg. The “D61-01 Binding efficiency” value in data set [1] (10 mM NaOAc, 150 mM NaCl, pH 7.0, Table S3-1) was 71-100%. Further, the D61-01 binding in data set [1] (2.5 mg of aluminum) is 86%; in data set [1] (four out of five conditions) it was 100%. Besides, in data set [1] (co-adsorption with HPV16 peptide, two reactions), the D61-01 binding efficiencies was 74% and 80%. In addition, the Binding efficiency in data set [1] (setting [5]) is 100%; in data set [1] (setting [6]), 100%; in data set [1] (setting [7]) it was 99%; in data set [1] (setting [8]), 65%. Further, the Bound in data set [1] (setting [5]) was 0.25 mg; in data set [1] (setting [6]), 0.50 mg; in data set [1] (setting [7]), 0.99 mg; in data set [1] (setting [8]) it was 0.97 mg.
Turning to “CSGLEQLESIINFEKLTEWTSSNVMEERKIKV [OVApep]”, the solubility in data set [2] (0.1 M sodium bicarbonate buffer, 0.1 M sodium bicarbonate, pH 8 buffer, read-out: solubility) is 2000 to 4000 µg/mL; in data set [2] (water, PBS or sodium acetate (NaOAc) buffers) it was “not appreciably soluble”.
As for “HRQLQLSISSCLQQLSLLMWITQCFLPVFLAQ [NY-ESO-1142-173 OLP]”, the “(%) binding efficiency to aluminum hydroxide” value in data set [3] (2-Butanol), in data set [3] (Acetic acid), in data set [3] (Acetone), in data set [3] (Ethanol), in data set [3] (Formic acid) and in data set [3] (Isopropyl alcohol) was 100% each time. Moreover, the “Qualitative Solubility score” value in data set [2] (Acetic acid) is listed as 1; in data set [2] (Acetone), 1; in data set [2] (Ethanol), 1; in data set [2] (Formic acid) it was 1; in data set [2] (Isoamyl alcohol), 3; in data set [2] (Isopropyl acetate), 3. Also, the “Qualitative Solubility score” value in data set [2] (Methyl acetate) and in data set [2] (n-Butyl acetate) was 3 each time. Moreover, the “Visual Appearance” value was “clear” in data set [2] (Acetic acid); “clear” in data set [2] (Acetone); “clear” in data set [2] (Ethanol); “clear” in data set [2] (Formic acid); “hazy” in data set [2] (Isoamyl alcohol); “hazy/insoluble” in data set [2] (Isopropyl acetate). In addition, the “Visual Appearance” value in data set [2] (Methyl acetate) and in data set [2] (n-Butyl acetate) was “hazy/insoluble” in each case. In addition, the “solubility after dilution of solvent” value in data set [2] (six solvents diluted to 20% solvent/80% water (v/v), data not shown) was “remained visually soluble”.
In the case of “[PEG24]VGALEGPRNQDWLAK[Cha]VAAWTLKAAATAYRYHLLSSVYDFFVWLSC [Triple, PEG24-VGALEGPRNQDWLAKXVAAWTLKAAATAYRYHLLSSVYDFFVWLSC wherein X = L-cyclohexylalanine]”, the solubility entry is “not appreciably soluble” in data set [2] (0.1 M sodium bicarbonate pH 8 buffer, water, PBS, sodium bicarbonate or NaOAc buffers) and 1000 to 5000 µg/mL in data set [2] (6M guanidine hydrochloride pH 8.5 or 20% IPA/water (v/v), read-out: solubility).
